Test system: patients with recurrent malignant glioma classified as WHO grade III or IV
Test: Phase 1 dose-escalation clinical trial: safety (TEAEs, DLTs, MTD);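 also: dosing continued until unacceptable toxicity, consent withdrawal, loss to follow-up or investigator/sponsor decision, with cohorts of 1-6 patients per dose level and MTD estimated by BLRM from cumulative DLT data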
[1] = 180 mg QD (N=6), cutoff April 21, 2024
[2] = 240 mg (N=5), cutoff April 21, 2023
[3] = 240 mg QD (N=6), cutoff April 21, 2024
[4] = 360 mg QD (N=6), cutoff April 21, 2024
[5] = 480 mg daily (240 mg BID) (N=6), cutoff April 21, 2024

Protocol: Administration to each subject was continued until unacceptable toxicity occurred, consent was withdrawn, the subject was lost to follow-up, or discontinuation was determined by the investigator and/or the sponsor.
The present study consists of two parts: a dose-escalation part (Part 1) and a dose-expansion part (Part 2).
Each dose level was evaluated in cohorts of 1-6 patients. In all cohorts, administration of the investigational drug to the second and subsequent patients was permitted after completion of all safety assessments on Day 8 of Cycle 1 in the first patient. […] At dose level 2 in the dose-escalation part, at least three patients were required to be evaluated before escalation to a higher dose level. After completion of each cohort, the probability of observing a DLT at each dose level in the present study was updated using the BLRM based on cumulative data from the preceding cohorts, and the MTD was estimated.

Question: Which results are given for CC1(C)Oc2cc(Cl)ccc2[C@@H]2OCC3(CCN(CCn4ccnc4)CC3)C[C@H]21 [Compound 1, (4'aR,10'bR)-8'-chloro-1-[2-(1H-imidazol-1-yl)ethyl]-5',5'-dimethyl-4'a,10'b-dihydro-2'H,4'H,5'H-spiro[piperidine-4,3'-pyrano[3,2-c][1]benzopyran] diphosphate]?
Answer: TEAE: alopecia [1]: 1 (16.7) n (%); TEAE: constipation [1]: 2 (33.3) n (%); TEAE: decreased appetite [1]: 1 (16.7) n (%); TEAE: decreased lymphocyte count [1]: 1 (16.7) n (%); TEAE: decreased neutrophil count [1]: 0 n (%); TEAE: decreased platelet count [1]: 1 (16.7) n (%); TEAE: diarrhea [1]: 1 (16.7) n (%); TEAE: dry skin [1]: 1 (16.7) n (%); TEAE: fall [1]: 2 (33.3) n (%); TEAE: fatigue [1]: 0 n (%); TEAE: headache [1]: 0 n (%); TEAE: hypertrigly-ceridaemia [1]: 1 (16.7) n (%); TEAE: hyponatremia [1]: 0 n (%); TEAE: increase in blood cholesterol [1]: 0 n (%); TEAE: increased alanine aminotransferase [1]: 4 (66.7) n (%); TEAE: increased aspartate aminotransferase [1]: 2 (33.3) n (%); TEAE: maculopapular rash [1]: 0 n (%); TEAE: nausea [1]: 2 (33.3) n (%); TEAE: seizure [1]: 2 (33.3) n (%); TEAE: vomiting [1]: 2 (33.3) n (%); Number of patients with any TEAE [2]: 5 (100) n (%); TEAE: constipation [2]: 3 (60.0) n (%); TEAE: decreased appetite [2]: 1 (20.0) n (%); TEAE: decreased lymphocyte count [2]: 2 (40.0) n (%); TEAE: decreased neutrophil count [2]: 0 n (%); TEAE: decreased platelet count [2]: 0 n (%); TEAE: decreased white blood cell count [2]: 0 n (%); TEAE: dry skin [2]: 3 (60.0) n (%); TEAE: fall [2]: 0 n (%); TEAE: headache [2]: 3 (60.0) n (%); TEAE: hypertrigly-ceridaemia [2]: 1 (20.0) n (%); TEAE: hyponatremia [2]: 0 n (%); TEAE: increased alanine aminotransferase [2]: 4 (80.0) n (%); TEAE: increased aspartate aminotransferase [2]: 2 (40.0) n (%); TEAE: nausea [2]: 3 (60.0) n (%); TEAE: seizure [2]: 1 (20.0) n (%); TEAE: vomiting [2]: 2 (40.0) n (%); maximum tolerated dose (MTD) (240 mg BID, dose as the present compound): 480 mg daily; Number of Patients with Any TEAE [3]: 6 (100) n (%); TEAE: Confusional state [3]: 1 (16.7) n (%); TEAE: Gait disturbance [3]: 0 n (%); TEAE: Gastrointestinal disorder [3]: 0 n (%); TEAE: Hiccups [3]: 0 n (%); TEAE: Tremor [3]: 0 n (%); TEAE: alopecia [3]: 1 (16.7) n (%); TEAE: constipation [3]: 3 (50.0) n (%); TEAE: decreased appetite [3]: 2 (33.3) n (%); TEAE: decreased lymphocyte count [3]: 2 (33.3) n (%); TEAE: decreased neutrophil count [3]: 0 n (%); TEAE: decreased platelet count [3]: 0 n (%); TEAE: diarrhea [3]: 1 (16.7) n (%); TEAE: dry skin [3]: 4 (66.7) n (%); TEAE: fall [3]: 0 n (%); TEAE: fatigue [3]: 1 (16.7) n (%); TEAE: headache [3]: 4 (66.7) n (%); TEAE: hypertrigly-ceridaemia [3]: 1 (16.7) n (%); TEAE: hyponatremia [3]: 0 n (%); TEAE: increase in blood cholesterol [3]: 1 (16.7) n (%); TEAE: increased alanine aminotransferase [3]: 6 (100) n (%); TEAE: increased aspartate aminotransferase [3]: 2 (33.3) n (%); TEAE: maculopapular rash [3]: 0 n (%); TEAE: nausea [3]: 4 (66.7) n (%); TEAE: seizure [3]: 1 (16.7) n (%); TEAE: vomiting [3]: 2 (33.3) n (%); serious TEAE: neoplasm progression (240 mg QD group, cutoff April 21, 2024): one; serious TEAE: neoplasm progression (240 mg group, cutoff April 21, 2023): one; Number of Patients with Any TEAE [4]: 6 (100) n (%); TEAE: Confusional state [4]: 0 n (%); TEAE: Gait disturbance [4]: 1 (16.7) n (%); TEAE: Gastrointestinal disorder [4]: 1 (16.7) n (%); TEAE: Hiccups [4]: 0 n (%); TEAE: Tremor [4]: 2 (33.3) n (%); TEAE: alopecia [4]: 2 (33.3) n (%); TEAE: constipation [4]: 2 (33.3) n (%); TEAE: decreased appetite [4]: 1 (16.7) n (%); TEAE: decreased lymphocyte count [4]: 0 n (%); TEAE: decreased neutrophil count [4]: 1 (16.7) n (%); TEAE: decreased platelet count [4]: 1 (16.7) n (%); TEAE: diarrhea [4]: 2 (33.3) n (%); TEAE: dry skin [4]: 0 n (%); TEAE: fall [4]: 2 (33.3) n (%); TEAE: fatigue [4]: 3 (50.0) n (%); TEAE: headache [4]: 1 (16.7) n (%); TEAE: hypertrigly-ceridaemia [4]: 1 (16.7) n (%); TEAE: hyponatremia [4]: 1 (16.7) n (%); TEAE: increase in blood cholesterol [4]: 2 (33.3) n (%); TEAE: increased alanine aminotransferase [4]: 4 (66.7) n (%); TEAE: increased aspartate aminotransferase [4]: 3 (50.0) n (%); TEAE: maculopapular rash [4]: 1 (16.7) n (%); TEAE: nausea [4]: 6 (100) n (%); TEAE: seizure [4]: 0 n (%); TEAE: vomiting [4]: 4 (66.7) n (%); DLT (Grade 3 maculopapular rash; recovered to Grade 1 with treatment interruption) (360 mg QD, cutoff April 21, 2024): one; DLT: Grade 3 maculo-papular rash (recovered to grade 1 with dose interruption) (360 mg cohort, as of September 2023): one and One; Number of Patients with Any TEAE [5]: 6 (100) n (%); TEAE: Confusional state [5]: 2 (33.3) n (%); TEAE: Gait disturbance [5]: 2 (33.3) n (%); TEAE: Gastrointestinal disorder [5]: 1 (16.7) n (%); TEAE: Hiccups [5]: 2 (33.3) n (%); TEAE: Tremor [5]: 0 n (%)

Reference: patent EP4806435A1, “DIHYDROCHROMENE-DERIVATIVE-CONTAINING THERAPEUTIC AGENT FOR CANCER” (Sumitomo Pharma Co., Ltd., priority 2023, dated 2025)
